Reference: ChEMBL document CHEMBL5038669, “Development of the First Covalent Monopolar Spindle Kinase 1 (MPS1/TTK) Inhibitor” (J Med Chem, 2022)

Target: T1, Serine/threonine-protein kinase 17B (Homo sapiens) (UniProt O94768)
T1 sequence (whole entry): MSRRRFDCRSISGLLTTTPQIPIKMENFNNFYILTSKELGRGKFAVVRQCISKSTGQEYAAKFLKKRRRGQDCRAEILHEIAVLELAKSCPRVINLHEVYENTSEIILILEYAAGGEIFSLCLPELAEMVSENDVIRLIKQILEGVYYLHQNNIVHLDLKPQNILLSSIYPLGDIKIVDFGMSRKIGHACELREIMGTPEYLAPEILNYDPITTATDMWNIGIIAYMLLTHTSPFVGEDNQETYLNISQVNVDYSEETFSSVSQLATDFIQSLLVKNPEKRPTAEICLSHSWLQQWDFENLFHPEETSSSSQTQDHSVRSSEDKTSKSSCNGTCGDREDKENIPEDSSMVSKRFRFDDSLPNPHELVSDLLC
Settings: dose 10.0 µM

ΔTm: 19.1 °C
Compound: COc1ccc(Oc2cc(NCCC(F)(F)F)c3ncc(-c4ccc(C(=O)NC5CC5)c(C)c4)n3n2)c(F)c1F
